# From patent US6087383A (Bristol-Myers Squibb Company, priority 1998, dated 2000)
# Structures can show the parent of a compound that is named as a salt. Where two headings read alike, the source gives them in different places.
# Experiments:
# [1] = dog, in vivo
# [2] = pH 1.8
# [3] = Oral bioavailability in animals; assay type: in vivo; conditions: crystalline free base form as a suspension in water or oil
# [4] = From the text: (§1) In general, conversion of salts to the unionized form or vice versa can be explained on the basis of pH-solubility theory. […] At pH<pHmax the equilibrium solid converts to the corresponding salt form. The term "equilibrium solid phase" refers to the undissolved or excess solid in a suspension of the compound in water after sufficient equilibration time. When a salt of a weak base is equilibrated in water in an amount exceeding its solubility limit (i.e., a suspension of the salt in water), the resulting pH of the suspension may fall on either side of the pHmax depending on the strength of the acid among other factors. When the resulting pH is greater than the pHmax, the suspended solid converts to the free base.
# [5] = Crystal form characterisation (hygroscopicity); assay type: physicochemical; conditions: crystals obtained from isopropanol
# From the text: They are now referred to as Type-II crystals. The Type-I crystals appear to be an anhydrous/desolvated crystalline material while the Type-II crystals are a hydrated, hygroscopic crystalline form.
# [6] = Aqueous solubility at 24±3° C.; conditions: water
# From the text: For development of pharmaceutical formulations, particularly oral dosage forms, the active ingredient must have sufficient oral bioavailability.
# [7] = 40° C./75% RH; for changes in thermal behavior: as little as two weeks
# [8] = Equilibration of excess salt in water: suspension pH and identity of undissolved solid phase; assay type: physicochemical; conditions: for pH of the suspension after equilibration / identity of undissolved solid phase after equilibration in water: excess salt in water; for pH of the suspension after equilibration: at least 24 hours (24±3° C. for methane sulfonate and hydrochloride); for identity of undissolved solid phase after equilibration in water: thermal and/or elemental analysis
# From the text: as §1
# The undissolved solids from these suspensions were isolated, air-dried, and characterized.
# in vivo = conditions: dog, po
structure (smiles),measurement,setting,value
"COC(=O)N[C@H](C(=O)N[C@@H](Cc1ccccc1)[C@@H](O)CN(Cc1ccc(-c2ccccn2)cc1)NC(=O)[C@@H](NC(=O)OC)C(C)(C)C)C(C)(C)C [Compound I, [3S-(3R*, 8'R*, 9'R*, 12R*)]-3,12-bis(1,1-dimethylethyl)-8-hydroxy-4,11-dioxo-9-(phenylmethyl)-6-[[4-(2-pyridinyl)phenylmethyl]-2,5,6,10,13-pentaazatetradecanedioic] acid, dimethyl ester]",oral bioavailability,[1],minimal oral bioavailability
same,solubility in water,[2],less than 1 mg/mL
same,oral bioavailability,[3],poor oral bioavailability
same,pHmax (pH at which the compound exhibits the highest solubility),[4],approximately 1.2
COC(=O)N[C@H](C(=O)N[C@@H](Cc1ccccc1)[C@@H](O)CN(Cc1ccc(-c2ccccn2)cc1)NC(=O)[C@@H](NC(=O)OC)C(C)(C)C)C(C)(C)C [Type-II crystals],hygroscopicity,[5],hygroscopic
COC(=O)N[C@H](C(=O)N[C@@H](Cc1ccccc1)[C@@H](O)CN(Cc1ccc(-c2ccccn2)cc1)NC(=O)[C@@H](NC(=O)OC)C(C)(C)C)C(C)(C)C [benzenesulfonate],solubility,[6],1000 to 3000 µg/mL
COC(=O)N[C@H](C(=O)N[C@@H](Cc1ccccc1)[C@@H](O)CN(Cc1ccc(-c2ccccn2)cc1)NC(=O)[C@@H](NC(=O)OC)C(C)(C)C)C(C)(C)C [bisulfate salt],solubility in water,[2],4 to 5 mg/mL
same,changes in thermal behavior (differential scanning calorimetry),"[7]; 9 months, vs unstressed sample (2-8° C. closed container)",no significant changes in the thermal behavior
same,pH of the suspension after equilibration,[8],1.9±0.2
same,identity of undissolved solid phase after equilibration in water,[8],hydrated form of 2:1 salt of the free base form and sulfuric acid
same,solid state transformation when suspended in water,[8]; suspension in water,prevents the conversion to the free base
same,bioavailability,in vivo,~20%
COC(=O)N[C@H](C(=O)N[C@@H](Cc1ccccc1)[C@@H](O)CN(Cc1ccc(-c2ccccn2)cc1)NC(=O)[C@@H](NC(=O)OC)C(C)(C)C)C(C)(C)C [hydrochloride],changes in thermal behavior,[7],significant changes in their thermal behavior
same,pH of the suspension after equilibration,[8],2.1±0.1
same,identity of undissolved solid phase after equilibration in water,[8],identified as the free base
COC(=O)N[C@H](C(=O)N[C@@H](Cc1ccccc1)[C@@H](O)CN(Cc1ccc(-c2ccccn2)cc1)NC(=O)[C@@H](NC(=O)OC)C(C)(C)C)C(C)(C)C [methanesulfonate],changes in thermal behavior,[7],significant changes in their thermal behavior
same,pH of the suspension after equilibration,[8],2.1±0.1
same,identity of undissolved solid phase after equilibration in water,[8],identified as the free base
